Data: patent publication US10227357B2, “Compounds and methods for kinase modulation, and indications therefor” (Plexxikon Inc., priority 2012, dated 2019)

Legend:
[1] = biological target: T1, c-kit mutant D816V (Homo sapiens, UniProt P10721, D816V/DEL694-753); experiment: c-Kit mutant D816V biochemical assay, AlphaScreen; details: c-kit D816V biochemical inhibitory activity; read-out: Biochemical activity (IC50 μM) Kit D816V
T1 construct: residues 551-934, kinase insertion domain residues 694-753 deleted; 6x-histidine (N); made in house; host or cells: E. coli Arctic Express (DE3) RIL (Stratagene)
T1 sequence (P10721 with tags, fused parts or gaps DEL694-753/D816V): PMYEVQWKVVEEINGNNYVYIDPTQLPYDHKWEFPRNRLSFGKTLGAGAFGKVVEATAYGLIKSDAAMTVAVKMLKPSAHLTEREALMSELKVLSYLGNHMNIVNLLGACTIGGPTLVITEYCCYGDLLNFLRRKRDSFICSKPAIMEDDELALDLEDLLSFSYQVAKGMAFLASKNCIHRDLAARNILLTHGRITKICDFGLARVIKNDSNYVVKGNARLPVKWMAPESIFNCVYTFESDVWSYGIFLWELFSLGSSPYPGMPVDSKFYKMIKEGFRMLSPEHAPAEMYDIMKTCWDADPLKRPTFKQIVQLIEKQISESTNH
Method in brief: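 Purified His-tagged c-Kit D816V (E. coli-expressed) assayed in 25 mM HEPES pH 7.2 with Mg/Mn, 5% DMSO and 10 μM ATP, 30 min at room temperature, 8-point 1:3 dilutions. Phosphorylation detected by AlphaScreen with streptavidin donor and PY20 acceptor beads; IC50 from signal versus concentration.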

[2] = biological target: T2, c-kit kinase (Homo sapiens, UniProt P10721); experiment: c-Kit biochemical assay, AlphaScreen, 10 μM ATP; details: c-kit biochemical inhibitory activity; read-out: Biochemical activity (IC50 μM) Kit
T2 construct: The c-kit (or kinase domain thereof) is an active kinase in AlphaScreen; poly-Histidine tag (in-house protein only) (cleaved yes); host or cells: E. coli BL21(DE3)RIL, co-expressed with PTP1B
T2 sequence (P10721 26-976): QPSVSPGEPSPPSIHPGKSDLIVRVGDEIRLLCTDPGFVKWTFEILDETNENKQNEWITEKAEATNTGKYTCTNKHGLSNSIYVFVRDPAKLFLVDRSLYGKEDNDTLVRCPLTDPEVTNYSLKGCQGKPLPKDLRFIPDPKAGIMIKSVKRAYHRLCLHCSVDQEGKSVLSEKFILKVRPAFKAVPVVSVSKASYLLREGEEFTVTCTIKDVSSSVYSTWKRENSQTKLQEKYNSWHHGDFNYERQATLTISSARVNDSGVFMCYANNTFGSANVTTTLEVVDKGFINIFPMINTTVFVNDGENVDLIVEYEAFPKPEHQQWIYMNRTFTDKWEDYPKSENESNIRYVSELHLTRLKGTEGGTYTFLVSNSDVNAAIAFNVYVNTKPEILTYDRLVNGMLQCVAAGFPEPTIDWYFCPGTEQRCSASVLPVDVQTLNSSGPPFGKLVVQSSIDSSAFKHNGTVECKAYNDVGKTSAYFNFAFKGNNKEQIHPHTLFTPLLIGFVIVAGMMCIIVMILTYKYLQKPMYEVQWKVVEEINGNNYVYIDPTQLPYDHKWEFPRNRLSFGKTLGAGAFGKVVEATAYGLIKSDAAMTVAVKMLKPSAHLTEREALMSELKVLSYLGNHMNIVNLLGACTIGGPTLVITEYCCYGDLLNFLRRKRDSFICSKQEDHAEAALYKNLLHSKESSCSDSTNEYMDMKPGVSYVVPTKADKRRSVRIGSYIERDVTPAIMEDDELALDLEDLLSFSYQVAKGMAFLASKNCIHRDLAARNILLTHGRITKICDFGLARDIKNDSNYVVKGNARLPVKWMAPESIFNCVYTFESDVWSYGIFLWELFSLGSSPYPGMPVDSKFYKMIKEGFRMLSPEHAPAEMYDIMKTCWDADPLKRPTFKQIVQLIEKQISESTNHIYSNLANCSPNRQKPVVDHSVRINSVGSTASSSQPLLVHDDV
Method in brief: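 His-tagged c-Kit expressed in E. coli with co-expressed PTP1B (dephosphorylated), tag removed; 0.1 ng per reaction with biotinylated-peptide substrate in 50 mM HEPES pH 7.2, 5 mM MgCl2, 5 mM MnCl2, 5% DMSO, 10 μM ATP, 1 h at room temperature. Phosphorylation detected by AlphaScreen (streptavidin donor, PY20 acceptor beads); IC50 from 8-point 1:3 dilution series.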

`O=C(NCc1cccs1)N1CCN(c2ncnc3cc(-c4ccc(F)cc4)sc23)CC1` [P-0709, 4-[6-(4-fluorophenyl)thieno[3,2-d]pyrimidin-4-yl]-N-(2-thienylmethyl)piperazine-1-carboxamide] was tested, and the IC50 [1] was 0.0001 to 1 µM and the IC50 [2] was 10 to 200 µM.

For `C[C@H](NC(=O)N1CCN(c2ncnc3[nH]c(-c4ccc(C#N)cc4)cc23)CC1(C)C)c1cccc(Cl)c1` [P-0689, N-[(1S)-1-(3-chlorophenyl)ethyl]-4-[6-(4-cyanophenyl)-7H-pyrrolo[2,3-d]pyrimidin-4-yl]-2,2-dimethyl-piperazine-1-carboxamide], the IC50 [1] was 0.0001 to 1 µM and the IC50 [2] was 0.0001 to 1 µM.

Work on `O=C(Nc1ccccc1Cl)N1CCN(c2ncnc3[nH]c(-c4cccnc4)cc23)CC1` [P-0220, N-(2-chlorophenyl)-4-[6-(3-pyridyl)-7H-pyrrolo[2,3-d]pyrimidin-4-yl]piperazine-1-carboxamide] yielded an IC50 [1] of 0.0001 to 1 µM and an IC50 [2] of 0.0001 to 1 µM.

`Cc1n[nH]c2ncnc(-c3ccc(NS(=O)(=O)c4ccc(F)cc4)cc3)c12` [P-0439, 4-fluoro-N-[4-(3-methyl-1H-pyrazolo[3,4-d]pyrimidin-4-yl)phenyl]benzenesulfonamide] gave an IC50 [1] of 0.0001 to 1 µM and an IC50 [2] of 1 to 10 µM.

`Cc1cc2c(N3CCN(C(=O)N[C@@H](C)c4cccc(F)c4)[C@H](C)C3)ncnc2[nH]1` [P-0684, (2R)-N-[(1S)-1-(3-fluorophenyl)ethyl]-2-methyl-4-(6-methyl-7H-pyrrolo[2,3-d]pyrimidin-4-yl)piperazine-1-carboxamide] showed an IC50 [1] of 0.0001 to 1 µM and an IC50 [2] of 10 to 200 µM.

With `O=C(N1CC=C(c2cc3ncnc(-c4ccc(NS(=O)(=O)c5ccc(F)cc5)cc4)c3s2)CC1)N1CCOCC1` [P-0561, 4-fluoro-N-[4-[6-[1-(morpholine-4-carbonyl)-3,6-dihydro-2H-pyridin-4-yl]thieno[3,2-d]pyrimidin-4-yl]phenyl]benzenesulfonamide] the IC50 [1] was 0.0001 to 1 µM and the IC50 [2] was 0.0001 to 1 µM.

In the case of `Cc1nn(C)cc1-c1cc2ncnc(N3CCN(C(=O)N[C@@H](C)c4cccc(F)c4)[C@H](C)C3)c2s1` [P-0584, (2R)-4-[6-(1,3-dimethylpyrazol-4-yl)thieno[3,2-d]pyrimidin-4-yl]-N-[(1S)-1-(3-fluorophenyl)ethyl]-2-methyl-piperazine-1-carboxamide], the IC50 [1] is reported as 0.0001 to 1 µM and the IC50 [2] is reported as 1 to 10 µM.

`O=S(=O)(Nc1ccc(-c2ncnc3[nH]c(C4CCCC4)cc23)cc1)c1ccc(F)cc1` [P-0290, N-[4-(6-cyclopentyl-7H-pyrrolo[2,3-d]pyrimidin-4-yl)phenyl]-4-fluoro-benzenesulfonamide] was tested, and the IC50 [1] was 0.0001 to 1 µM and the IC50 [2] was 1 to 10 µM.

`COCCOc1cc2ncnc(-c3ccc(NS(=O)(=O)c4ccc(OC(F)F)cc4)cc3F)c2cc1OCCOC` [P-0259, N-[4-[6,7-bis(2-methoxyethoxy)quinazolin-4-yl]-3-fluoro-phenyl]-4-(difluoromethoxy)benzenesulfonamide] showed an IC50 [1] of 0.0001 to 1 µM and an IC50 [2] of 1 to 10 µM.

`O=S(=O)(Nc1ccc(-c2ncnc3[nH]c(-c4ccc(F)cc4)cc23)cc1F)c1ccc(F)cc1` [P-0408, 4-fluoro-N-[2-fluoro-4-[6-(4-fluorophenyl)-7H-pyrrolo[2,3-d]pyrimidin-4-yl]phenyl]benzenesulfonamide] showed an IC50 [1] of 1 to 10 µM and an IC50 [2] of 10 to 200 µM.

For `CC(C)(NC(=O)N1CC=C(c2ncnc3cc(-c4ccc(F)cc4)sc23)CC1)c1ccccc1` [P-0679, 4-[6-(4-fluorophenyl)thieno[3,2-d]pyrimidin-4-yl]-N-(1-methyl-1-phenyl-ethyl)-3,6-dihydro-2H-pyridine-1-carboxamide], the IC50 [1] was 0.0001 to 1 µM and the IC50 [2] was 1 to 10 µM.

Work on `Cc1cc2c(-c3ccc(NS(=O)(=O)c4cccc(Cl)c4)c(F)c3)ncnc2[nH]1` [P-0345, 3-chloro-N-[2-fluoro-4-(6-methyl-7H-pyrrolo[2,3-d]pyrimidin-4-yl)phenyl]benzenesulfonamide] yielded an IC50 [1] of 1 to 10 µM and an IC50 [2] of 1 to 10 µM.

`NS(=O)(=O)c1cccc(-c2cc3c(N4CCN(C(=O)NCc5ccc(F)cc5)CC4)ncnc3[nH]2)c1` [P-0105, N-[(4-fluorophenyl)methyl]-4-[6-(3-sulfamoylphenyl)-7H-pyrrolo[2,3-d]pyrimidin-4-yl]piperazine-1-carboxamide] showed an IC50 [1] of 0.0001 to 1 µM and an IC50 [2] of 1 to 10 µM.

For `Cc1cc2c(-c3ccc(S(=O)(=O)Nc4ccc(F)cc4)cc3F)ncnc2[nH]1` [P-0336, 3-fluoro-N-(4-fluorophenyl)-4-(6-methyl-7H-pyrrolo[2,3-d]pyrimidin-4-yl)benzenesulfonamide], the IC50 [1] was 1 to 10 µM and the IC50 [2] was 10 to 200 µM.

`COc1cccc([C@@H](C)NC(=O)N2CCN(c3ncnc4[nH]c(-c5ccc(F)cc5)cc34)CC2)c1` [P-0149, 4-[6-(4-fluorophenyl)-7H-pyrrolo[2,3-d]pyrimidin-4-yl]-N-[(1R)-1-(3-methoxyphenyl)ethyl]piperazine-1-carboxamide] showed an IC50 [1] of 10 to 200 µM and an IC50 [2] of 10 to 200 µM.

`Cc1ccc(-c2cc3c(C4=CCC(NS(=O)(=O)c5ccc(OC(F)(F)F)cc5)CC4)ncnc3[nH]2)cn1` (stereo not drawn) [P-0281, N-[4-[6-(6-methyl-3-pyridyl)-7H-pyrrolo[2,3-d]pyrimidin-4-yl]cyclohex-3-en-1-yl]-4-(trifluoromethoxy)benzenesulfonamide] was tested, and the IC50 [1] was 0.0001 to 1 µM and the IC50 [2] was 10 to 200 µM.

Work on `Cc1cc2c(-c3ccc(NS(=O)(=O)c4cc(F)ccc4F)cc3F)ncnc2[nH]1` [P-0335, 2,5-difluoro-N-[3-fluoro-4-(6-methyl-7H-pyrrolo[2,3-d]pyrimidin-4-yl)phenyl]benzenesulfonamide] yielded an IC50 [1] of 1 to 10 µM and an IC50 [2] of 1 to 10 µM.

`CCc1ccc(S(=O)(=O)NC2CCN(c3ncnc4[nH]ccc34)CC2)cc1` [P-0525, 4-ethyl-N-[1-(7H-pyrrolo[2,3-d]pyrimidin-4-yl)-4-piperidyl]benzenesulfonamide] showed an IC50 [1] of 10 to 200 µM and an IC50 [2] of 10 to 200 µM.

`CCCCc1ccc(S(=O)(=O)Nc2ccc(-c3ncnc4[nH]c(C)cc34)cc2)cc1` [P-0287, 4-butyl-N-[4-(6-methyl-7H-pyrrolo[2,3-d]pyrimidin-4-yl)phenyl]benzenesulfonamide] was tested, and the IC50 [1] was 1 to 10 µM and the IC50 [2] was 10 to 200 µM.

`CC(=N)Nc1ccc(-c2ncnc3cc(C4=CCN(C(=O)N5CCOCC5)CC4)sc23)cc1` [P-0559, N-[4-[6-[1-(morpholine-4-carbonyl)-3,6-dihydro-2H-pyridin-4-yl]thieno[3,2-d]pyrimidin-4-yl]phenyl]acetamidine] was tested, and the IC50 [1] was 0.0001 to 1 µM and the IC50 [2] was 10 to 200 µM.

For `CC1(C)C=C(c2cc3c(-c4ccc(NS(=O)(=O)c5ccc(F)cc5)cc4)ncnc3[nH]2)CC(C)(C)O1` [P-0298, 4-fluoro-N-[4-[6-(2,2,6,6-tetramethyl-3H-pyran-4-yl)-7H-pyrrolo[2,3-d]pyrimidin-4-yl]phenyl]benzenesulfonamide], the IC50 [1] was 1 to 10 µM and the IC50 [2] was 10 to 200 µM.

`Cc1cc2c(N3CCN(C(=O)N[C@@H](C)c4cccc(Cl)c4)C(C)(C)C3)ncnc2[nH]1` [P-0641, N-[(1S)-1-(3-chlorophenyl)ethyl]-2,2-dimethyl-4-(6-methyl-7H-pyrrolo[2,3-d]pyrimidin-4-yl)piperazine-1-carboxamide] was tested, and the IC50 [1] was 0.0001 to 1 µM and the IC50 [2] was 10 to 200 µM.

For `Cc1nn(C)cc1-c1cc2ncnc(C3=CCN(C(=O)NCc4ccc(F)cc4)CC3)c2s1` [P-0613, 4-[6-(1,3-dimethylpyrazol-4-yl)thieno[3,2-d]pyrimidin-4-yl]-N-[(4-fluorophenyl)methyl]-3,6-dihydro-2H-pyridine-1-carboxamide], the IC50 [1] was 0.0001 to 1 µM and the IC50 [2] was 1 to 10 µM.

In the case of `O=S(=O)(Nc1ccc(-c2ncnc3[nH]c(-c4cc(F)ccc4F)cc23)c(F)c1)c1ccc(Cl)cc1` [P-0337, 4-chloro-N-[4-[6-(2,5-difluorophenyl)-7H-pyrrolo[2,3-d]pyrimidin-4-yl]-3-fluoro-phenyl]benzenesulfonamide], the IC50 [1] is reported as 0.0001 to 1 µM and the IC50 [2] is reported as 10 to 200 µM.

With `COc1cccc([C@H](C)NC(=O)N2CCN(c3ncnc4cc(-c5ccc(F)cc5)sc34)CC2(C)C)c1` [P-0594, 4-[6-(4-fluorophenyl)thieno[3,2-d]pyrimidin-4-yl]-N-[(1S)-1-(3-methoxyphenyl)ethyl]-2,2-dimethyl-piperazine-1-carboxamide] the IC50 [1] was 0.0001 to 1 µM and the IC50 [2] was 1 to 10 µM.

`O=C(NCc1ccc(Cl)cn1)N1CCN(c2ncnc3[nH]c(-c4cccnc4)cc23)CC1` [P-0123, N-[(5-chloro-2-pyridyl)methyl]-4-[6-(3-pyridyl)-7H-pyrrolo[2,3-d]pyrimidin-4-yl]piperazine-1-carboxamide] was tested, and the IC50 [1] was 0.0001 to 1 µM and the IC50 [2] was 0.0001 to 1 µM.

With `CS(=O)(=O)Nc1ccc(-c2ncnc3[nH]c(-c4cc(F)ccc4F)cc23)c(F)c1` [P-0339, N-[4-[6-(2,5-difluorophenyl)-7H-pyrrolo[2,3-d]pyrimidin-4-yl]-3-fluoro-phenyl]methanesulfonamide] the IC50 [1] was 0.0001 to 1 µM and the IC50 [2] was 1 to 10 µM.

With `NC(=O)c1cccc(-c2cc3c(N4CCN(C(=O)NCc5ccc(F)cc5)CC4)ncnc3[nH]2)c1` [P-0108, 4-[6-(3-carbamoylphenyl)-7H-pyrrolo[2,3-d]pyrimidin-4-yl]-N-[(4-fluorophenyl)methyl]piperazine-1-carboxamide] the IC50 [1] was 0.0001 to 1 µM and the IC50 [2] was 1 to 10 µM.

Work on `NS(=O)(=O)c1ccc(-c2ncnc3[nH]c(-c4ccc(F)cc4)cc23)cc1` [P-0418, 4-[6-(4-fluorophenyl)-7H-pyrrolo[2,3-d]pyrimidin-4-yl]benzenesulfonamide] yielded an IC50 [1] of 0.0001 to 1 µM and an IC50 [2] of 1 to 10 µM.

Work on `COc1ccc(S(=O)(=O)N2CCN(c3ncnc4[nH]ccc34)CC2)cc1` [P-0217, 4-[4-(4-methoxyphenyl)sulfonylpiperazin-1-yl]-7H-pyrrolo[2,3-d]pyrimidine] yielded an IC50 [1] of 10 to 200 µM and an IC50 [2] of 1 to 10 µM.
